Here are results for 14 compounds from PubChem BioAssay (NCI).

Test systems include ACHN renal; HL-60(TB) leukemia; IGROV1 ovarian; SK-MEL-2 melanoma; SK-OV-3 ovarian; SN12C renal; SNB-75 CNS; TK-10 renal.
Common to all, as to assay: DTP human tumour cell line panel, 48 h

Structures are written as SMILES. “And” between values parts separate entries of the source, which are not always exact repeats. Equal entries are not always repeated.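 Cultured in 96-well plates, cells were exposed to test compound for 48 hours across five concentrations. GI50 = concentration required for 50% inhibition of growth. TGI denotes the concentration required for complete inhibition of growth.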

On to `CCNCC(=O)Nc1ccc2c(c1)C(=O)c1ccc(NC(=O)CNCC)cc1C2=O`, for which the TGI (in general, the concentration giving total growth inhibition) in the test on ACHN renal was 9.15 µM; in the test with HL-60(TB) leukemia, 8.81 µM; with IGROV1 ovarian it was 19.5 µM; in the test on SK-MEL-2 melanoma, 47.4 µM; with SK-OV-3 ovarian it was 9.48 µM; in the test with SN12C renal, 6.45 µM. Further, the concentration for total growth inhibition (TGI) is 7.44 µM in the test with SNB-75 CNS and 18.7 µM in the test with TK-10 renal.
As for `NC(=O)c1cn(C2CC(O)C(CO)O2)c2ncnc(N)c12` (centres undefined), the GI50 – broadly, the concentration at which growth is held to half of that of the control – in the test with ACHN renal is 3.62 µM; with HL-60(TB) leukemia it was 2730 nM; in the test with IGROV1 ovarian it was 749 nM; in the test on SK-MEL-2 melanoma, 10.5 µM; in the test on SK-OV-3 ovarian, 1.68 µM; in the test on SN12C renal it was 1560 nM. Also, the GI50 with SNB-75 CNS is 1520 nM; with TK-10 renal it was 1960 nM. Moreover, the total growth inhibition concentration (TGI) with ACHN renal was more than 58.1 µM; in the test with HL-60(TB) leukemia, 20 µM; in the test on IGROV1 ovarian it was 5.16 µM; with SK-MEL-2 melanoma, more than 28.2 µM; in the test on SK-OV-3 ovarian it was 43 µM; with SN12C renal it was 31.1 µM. Besides, the concentration for total growth inhibition (TGI) with SNB-75 CNS worked out at 9.47 µM; in the test with TK-10 renal it was 19.5 µM.
Consider `CCCCCSc1ccc2nc(NC(=O)OCC)sc2c1`, for which the GI50 was 0.908 µM in the test on ACHN renal; 351 nM with HL-60(TB) leukemia; 945 nM in the test with IGROV1 ovarian; 0.431 µM with SK-MEL-2 melanoma; 0.535 µM in the test with SK-OV-3 ovarian; 959 nM with SN12C renal. Besides, the concentration for 50% growth inhibition (GI50) was 410 nM in the test with SNB-75 CNS and 2250 nM in the test on TK-10 renal. The TGI was more than 100 µM in the test with ACHN renal; more than 100 µM with HL-60(TB) leukemia; more than 100 µM in the test on IGROV1 ovarian; 25.3 µM in the test on SK-MEL-2 melanoma; more than 100 µM in the test with SK-OV-3 ovarian; more than 100 µM with SN12C renal. Moreover, the concentration for total growth inhibition (TGI) in the test on SNB-75 CNS was found to be 20.2 µM; with TK-10 renal, 52.8 µM.
As for `CCn1nc(C2CCN(C(=O)CCO)CC2)nc1-c1cnc(N)c(-c2nnc(C(C)(C)C)o2)n1`, the GI50 is 3.92 µM in the test on ACHN renal; 263 nM in the test with HL-60(TB) leukemia; 245 nM in the test with IGROV1 ovarian; 30.9 µM in the test with SK-MEL-2 melanoma; 0.286 µM in the test on SK-OV-3 ovarian; 6340 nM with SN12C renal. For the same compound, the concentration for 50% growth inhibition (GI50) with SNB-75 CNS was 155 nM; in the test with TK-10 renal, 1950 nM. Moreover, the TGI is more than 100 µM in the test on ACHN renal; 97.5 µM in the test with HL-60(TB) leukemia; more than 100 µM with IGROV1 ovarian; more than 100 µM with SK-MEL-2 melanoma; 2.74 µM with SK-OV-3 ovarian; more than 100 µM in the test with SN12C renal. Moreover, the total growth inhibition concentration (TGI) with SNB-75 CNS and with TK-10 renal was more than 100 µM each time.
For `OCC1OC(N2C=C(c3nc4ccccc4s3)C3C=CC=CC32)C(O)C(O)C1O` (centres undefined), the GI50 in the test with ACHN renal was 14.7 µM; with HL-60(TB) leukemia, 17100 nM; in the test with IGROV1 ovarian, 19800 nM; in the test on SK-MEL-2 melanoma it was 31.7 µM; in the test with SK-OV-3 ovarian it was 41.1 µM; with SN12C renal, 28800 nM. For the same compound, the GI50 in the test with SNB-75 CNS is 18100 nM; in the test on TK-10 renal, 12500 nM. Also, the TGI with ACHN renal, in the test with HL-60(TB) leukemia, with IGROV1 ovarian, with SK-MEL-2 melanoma, in the test with SK-OV-3 ovarian and in the test on SN12C renal was more than 50 µM in each case. For the same compound, the TGI was more than 50 µM in the test on SNB-75 CNS and 32 µM in the test with TK-10 renal.
Consider `CN1CCc2ccccc2C1Cc1ccccc1NC(=O)c1sc2ccccc2c1Cl` (centres undefined), for which the TGI in the test on ACHN renal, with HL-60(TB) leukemia, in the test with IGROV1 ovarian, with SK-MEL-2 melanoma, in the test on SK-OV-3 ovarian and in the test on SN12C renal was more than 100 µM each time. Also, the TGI in the test with SNB-75 CNS and in the test with TK-10 renal was more than 100 µM each time.
`COc1ccc(Nc2ncc(I)c(NCCCNC(=O)C3CCC3)n2)cc1`: the GI50 in the test on ACHN renal is 3.65 µM; in the test on HL-60(TB) leukemia it was 3470 nM; in the test on IGROV1 ovarian it was 2390 nM; in the test with SK-MEL-2 melanoma, 16.8 µM; in the test with SK-OV-3 ovarian, 4.81 µM; with SN12C renal, 1460 nM. The GI50 in the test on SNB-75 CNS was 464 nM; in the test on TK-10 renal, 897 nM. Moreover, the TGI with ACHN renal was more than 100 µM; in the test on HL-60(TB) leukemia, 14.7 µM; in the test on IGROV1 ovarian, 16.6 µM; in the test on SK-MEL-2 melanoma, 57.1 µM; in the test with SK-OV-3 ovarian, 25.5 µM; in the test with SN12C renal, more than 100 µM. Moreover, the TGI was determined as 7.75 µM with SNB-75 CNS and 9.78 µM with TK-10 renal.
`CC[C@]12CN3CCc4c([nH]c5ccccc45)[C@@](C(=O)OC)(c4cc5c(cc4OC)N(C)[C@H]4[C@@](O)(C(=O)OC)[C@H](OC(C)=O)[C@]6(CC)C=CCN7CC[C@]54[C@@H]76)CC(C3)[C@H]1O2` (some centres undefined): the GI50 with ACHN renal is 2.14 µM; in the test with HL-60(TB) leukemia it was 88 nM; in the test with IGROV1 ovarian, 154 nM; in the test on SK-MEL-2 melanoma it was 0.0434 µM; in the test with SN12C renal, 408 nM; with TK-10 renal, 562 nM. Also, the total growth inhibition concentration (TGI) was more than 100 µM with ACHN renal; more than 100 µM in the test with IGROV1 ovarian; more than 100 µM in the test on SK-OV-3 ovarian; 15.4 µM and > 50 µM in the test on SN12C renal; more than 100 µM in the test with SNB-75 CNS; more than 100 µM in the test on TK-10 renal.
As to `COc1cccc2c1C(=O)c1c(O)c3c(c(O)c1C2=O)C[C@](O)(C(=O)CO)C[C@H]3O[C@@H]1C[C@@H](NC(=O)CCCN(C)C2(c3ccc(F)cc3)CC3CCC2C3)[C@H](O)[C@@H](C)O1` (some centres undefined), the GI50 with ACHN renal was 0.736 µM; with HL-60(TB) leukemia, 1170 nM; in the test on IGROV1 ovarian it was 5720 nM; in the test with SK-MEL-2 melanoma it was 1.06 µM; in the test with SK-OV-3 ovarian, 7.59 µM; in the test on SN12C renal, 5130 nM. Moreover, the results for the GI50 in the test with SNB-75 CNS and in the test with TK-10 renal were 1090 nM and 780 nM, respectively. In addition, the TGI was determined as 1.4 µM with ACHN renal; 3.01 µM in the test with HL-60(TB) leukemia; 15.8 µM in the test with IGROV1 ovarian; 2.15 µM with SK-MEL-2 melanoma; 16.4 µM in the test on SK-OV-3 ovarian; 14 µM in the test with SN12C renal. Moreover, the TGI in the test with SNB-75 CNS was 9.89 µM; in the test with TK-10 renal, 1.64 µM.
For the compound `COc1cc(-n2cc(-c3ccc(Cl)cc3)n(-c3ccccc3)c2=O)cc(OC)c1OC`, the GI50 in the test with ACHN renal was 25.8 µM; in the test on HL-60(TB) leukemia it was 2820 nM; in the test with IGROV1 ovarian it was 7870 nM; with SK-MEL-2 melanoma, 17.4 µM; in the test with SK-OV-3 ovarian, 30.8 µM; with SN12C renal, 23300 nM. The values for the GI50 in the test on SNB-75 CNS and in the test on TK-10 renal were 20900 nM and 35500 nM, respectively. Besides, the TGI in the test on ACHN renal was more than 100 µM; in the test on HL-60(TB) leukemia it was more than 47.6 µM; with IGROV1 ovarian, 36.2 µM; in the test on SK-MEL-2 melanoma, 40 µM; in the test on SK-OV-3 ovarian, more than 90.7 µM; in the test with SN12C renal, more than 72.5 µM. Moreover, the total growth inhibition concentration (TGI) in the test with SNB-75 CNS and in the test on TK-10 renal was more than 100 µM each time.
In the case of `ClCc1ccccc1Cn1cnc2nc(Cl)nc(Cl)c21`, the GI50 was 0.209 µM with ACHN renal; 1350 nM in the test on HL-60(TB) leukemia; 1780 nM in the test with IGROV1 ovarian; 1.89 µM in the test with SK-MEL-2 melanoma; 4.35 µM in the test with SK-OV-3 ovarian; 1170 nM with SN12C renal. Further, the figures for the GI50 in the test with SNB-75 CNS and in the test on TK-10 renal were 1600 nM and 13500 nM, respectively. The TGI with ACHN renal amounted to 0.609 µM; in the test on HL-60(TB) leukemia, 8.45 µM; with IGROV1 ovarian, 3.47 µM; in the test on SK-MEL-2 melanoma it was 8.59 µM; in the test with SK-OV-3 ovarian, 15.4 µM; in the test on SN12C renal, 2.56 µM. In addition, the total growth inhibition concentration (TGI) with SNB-75 CNS was 3.43 µM; in the test on TK-10 renal it was 29.8 µM.
On to `Oc1ccc(N=Nc2ccc(Br)cc2)c(O)c1`, for which the GI50 in the test with ACHN renal is 5.44 µM; in the test on HL-60(TB) leukemia, 1710 nM; in the test on IGROV1 ovarian it was 2810 nM; in the test with SK-MEL-2 melanoma, 2.64 µM; with SK-OV-3 ovarian, 3.24 µM; with SN12C renal, 6540 nM. The GI50 in the test on SNB-75 CNS is 2790 nM; with TK-10 renal, 4950 nM. Further, the total growth inhibition concentration (TGI) was found to be 37.5 µM in the test on ACHN renal; 4.53 µM in the test with HL-60(TB) leukemia; 16.7 µM in the test with IGROV1 ovarian; 12 µM with SK-MEL-2 melanoma; 18.3 µM in the test with SK-OV-3 ovarian; 50 µM in the test with SN12C renal. The concentration for total growth inhibition (TGI) in the test with SNB-75 CNS worked out at 21.8 µM; with TK-10 renal, 24.8 µM.
For the compound `COc1cc2c(/C=C3\C(=O)N(C)c4ccccc43)c[nH]c2cc1C`, the GI50 is 3.61 µM in the test on ACHN renal; 2530 nM with HL-60(TB) leukemia; 7870 nM with IGROV1 ovarian; 10.2 µM in the test with SK-MEL-2 melanoma; 8.35 µM in the test on SK-OV-3 ovarian; 2000 nM with SN12C renal. For the same compound, the GI50 in the test with SNB-75 CNS is 4340 nM; with TK-10 renal, 10500 nM. The TGI in the test with ACHN renal is 55.7 µM; with HL-60(TB) leukemia, 84.8 µM; with IGROV1 ovarian, more than 69.6 µM; in the test with SK-MEL-2 melanoma it was more than 84.1 µM; in the test on SK-OV-3 ovarian it was more than 100 µM; with SN12C renal, more than 73.5 µM. In addition, the total growth inhibition concentration (TGI) in the test on SNB-75 CNS was more than 100 µM; in the test on TK-10 renal it was 70.5 µM.
Turning to `Nc1nc(Sc2ccc([N+](=O)[O-])c3nonc23)c2ncn(C3OC(CO)C(O)C3O)c2n1` (centres undefined), the GI50 in the test with ACHN renal was 0.609 µM; in the test with HL-60(TB) leukemia, 3700 nM; in the test with IGROV1 ovarian it was 2580 nM; with SK-MEL-2 melanoma, 0.393 µM; in the test on SK-OV-3 ovarian, 0.651 µM; with SN12C renal, 1480 nM. The GI50 is 886 nM in the test with SNB-75 CNS and 2420 nM in the test with TK-10 renal. The TGI in the test with ACHN renal was found to be 23.8 µM; in the test on HL-60(TB) leukemia, 23.5 µM; in the test on IGROV1 ovarian, 24.2 µM; with SK-MEL-2 melanoma, 8.81 µM; in the test with SK-OV-3 ovarian, 14.5 µM; in the test on SN12C renal, 21.8 µM. In addition, the figures for the TGI in the test with SNB-75 CNS and with TK-10 renal were more than 100 µM and more than 37.2 µM, respectively.
